# Results reported in patent US20100068204A1, “4-ARYLOXYQUINOLIN-2(1H)-ONES AS MTOR KINASE AND PI3 KINASE INHIBITORS, FOR USE AS ANTI-CANCER AGENTS” (Wyeth, priority 2008, published 2010).
# What was measured:
# [1] = tested on: LNCap prostate tumor cells; assay: In vitro cell growth assay (MTS), LNCap; assay type: cell-based, human; settings: Homo sapiens, LNCaP, 72 h, three days after drug treatment
# Description: (§1) Cell lines used were human adenocarcinoma (LoVo), […], prostate (LNCap), breast (MDA468, MCF7), colon (HCT116), renal (HTB44 A498), and ovarian (OVCAR3) tumor cell lines. The tumor cells were plated in 96-well culture plates at approximately 3000 cells per well. One day following plating, various concentrations of inhibitors in DMSO were added to cells (final DMSO concentration in cell assays was 0.25%). Three days after drug treatment, viable cell densities were determined by cell mediated metabolic conversion of the dye MTS, a well-established indicator of cell proliferation in vitro. Cell growth assays were performed using kits purchased from Promega Corporation (Madison, Wis.), following the protocol provided by the vendor. Measuring absorbance at 490 nm generated MTS assay results. Compound effect on cell proliferation was assessed relative to untreated control cell growth.
# human TOR (FLAG-TOR) = human TOR (FLAG-TOR) (Homo sapiens, UniProt P42345); assay: mTOR enzyme assay (DELFIA format, purified enzyme); assay type: biochemical; settings: 800 ng/ml FLAG-TOR, 100 μM ATP, 1.25 μM His6-S6K; read-out: mTOR Kinase IC50
# PI3Kα = PI3Kα (Homo sapiens, UniProt P42336); assay: PI3Kα fluorescence polarization assay; assay type: biochemical; settings: 20 μM PIP2, 25 μM ATP
# Chain of PI3Kα (P42336 whole entry, species assumed): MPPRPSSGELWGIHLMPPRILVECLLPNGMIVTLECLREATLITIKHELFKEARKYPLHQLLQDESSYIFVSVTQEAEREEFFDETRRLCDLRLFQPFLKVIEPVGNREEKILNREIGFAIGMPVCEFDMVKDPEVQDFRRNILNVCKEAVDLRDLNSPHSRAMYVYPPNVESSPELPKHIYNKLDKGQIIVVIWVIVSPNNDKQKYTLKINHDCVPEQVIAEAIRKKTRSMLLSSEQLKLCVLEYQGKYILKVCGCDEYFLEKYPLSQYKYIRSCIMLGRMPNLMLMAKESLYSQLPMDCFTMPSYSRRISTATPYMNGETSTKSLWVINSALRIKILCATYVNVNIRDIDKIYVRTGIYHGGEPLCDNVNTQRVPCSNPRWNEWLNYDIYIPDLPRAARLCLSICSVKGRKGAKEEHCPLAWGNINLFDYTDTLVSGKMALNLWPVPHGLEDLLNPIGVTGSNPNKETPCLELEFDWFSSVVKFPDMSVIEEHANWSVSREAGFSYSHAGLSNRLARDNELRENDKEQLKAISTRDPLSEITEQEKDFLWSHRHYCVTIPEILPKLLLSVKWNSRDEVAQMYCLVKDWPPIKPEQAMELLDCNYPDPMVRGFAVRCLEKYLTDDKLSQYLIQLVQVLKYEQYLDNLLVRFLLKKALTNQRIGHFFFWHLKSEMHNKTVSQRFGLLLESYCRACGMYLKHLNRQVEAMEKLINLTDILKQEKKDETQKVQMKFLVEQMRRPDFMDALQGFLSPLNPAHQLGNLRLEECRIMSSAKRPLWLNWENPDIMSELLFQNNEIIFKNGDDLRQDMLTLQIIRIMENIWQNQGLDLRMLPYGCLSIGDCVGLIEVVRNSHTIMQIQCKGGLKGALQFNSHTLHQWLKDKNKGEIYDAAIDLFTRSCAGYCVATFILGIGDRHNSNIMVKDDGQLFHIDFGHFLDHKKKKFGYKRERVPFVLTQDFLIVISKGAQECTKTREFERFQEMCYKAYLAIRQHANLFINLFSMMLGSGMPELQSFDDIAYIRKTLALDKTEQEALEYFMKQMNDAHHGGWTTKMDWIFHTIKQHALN
# Chain of PI3Kα (P27986 whole entry partner, species assumed): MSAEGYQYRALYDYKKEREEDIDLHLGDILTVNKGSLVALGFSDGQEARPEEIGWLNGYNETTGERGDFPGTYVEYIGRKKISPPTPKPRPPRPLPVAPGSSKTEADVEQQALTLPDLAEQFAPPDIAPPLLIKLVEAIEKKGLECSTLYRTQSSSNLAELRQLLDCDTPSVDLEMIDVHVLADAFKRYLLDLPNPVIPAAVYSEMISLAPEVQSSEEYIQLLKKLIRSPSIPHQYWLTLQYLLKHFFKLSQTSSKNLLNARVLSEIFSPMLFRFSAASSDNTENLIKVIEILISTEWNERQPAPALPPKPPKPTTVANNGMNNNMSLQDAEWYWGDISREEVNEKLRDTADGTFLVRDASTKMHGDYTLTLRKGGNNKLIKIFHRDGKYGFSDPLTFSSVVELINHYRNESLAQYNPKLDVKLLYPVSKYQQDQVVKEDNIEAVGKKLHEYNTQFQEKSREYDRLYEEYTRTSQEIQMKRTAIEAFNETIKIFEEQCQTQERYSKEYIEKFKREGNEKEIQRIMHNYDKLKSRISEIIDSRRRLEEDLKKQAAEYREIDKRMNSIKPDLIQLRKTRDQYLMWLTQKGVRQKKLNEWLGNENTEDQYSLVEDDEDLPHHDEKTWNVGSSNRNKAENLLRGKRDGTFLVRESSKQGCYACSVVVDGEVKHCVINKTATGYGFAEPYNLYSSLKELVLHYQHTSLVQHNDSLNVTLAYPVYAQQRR
# Description: The reaction buffer was 20 mM HEPES pH7.5, 2 mM MgCl2, 0.05% CHAPS, and 0.01% βME (added fresh). The substrate solution was 40 μM PIP2 (diC8, Echelon, Salt Lake City Utah cat #P-4508, 1 mM in water) and 50 μM ATP in the reaction buffer. Nunc 384-well black polypropylene fluorescent plates were used for PI3K assays. The assay is run by putting 9.5 μl of freshly diluted enzyme in the reaction buffer per well, adding 0.5 μl of diluted drug or DMSO, and mixing. Then 10 μl of the substrate solution is added to each well to start the reaction. A final concentration of 20 μM PIP2 and 25 μM ATP in the reaction was used. Reactions were allowed to proceed for 30-60 minutes at room temperature. After 30-60 minutes, 20 μl of a solution of 10 nM TAMRA detector (Red detector probe-Echelon) and 2.5 uM of GST-murine GRP (1.5 mg/ml in 17% glycerol) was added per well to stop the reaction. The resulting solution was mixed well and allowed to stand for 90-110 minutes before reading plate. Assay Plates were read on Perkin-Elmer Envision plate readers with appropriate filters for Tamra [BODIPY-TMRI(1,3,4,5)P4]. Data obtained were used to calculate enzymatic activity and enzyme inhibition by inhibitor compounds. It is important to keep Red probe solutions dark. This procedure is adapted from Echelon Biosciences Inc procedure for their PI3-Kinase fluorescence polarization activity Assay kit Product number K-1100.
# [2] = tested on: MDA468 breast tumor cells; assay: In vitro cell growth assay (MTS), MDA468; assay type: cell-based, human; settings: Homo sapiens, 72 h, three days after drug treatment
# Description: as §1
IC50 [1] [µM],IC50 (human TOR (FLAG-TOR)) [µM],IC50 (PI3Kα) [µM],IC50 [2] [µM],Structure (SMILES)
3.4,0.13,4.65,13,O=c1cc(Oc2cccc(NCc3ccco3)c2)c2ccccc2[nH]1
5.4,0.08,> 10,> 60,O=c1cc(Oc2cccc(NCc3cccs3)c2)c2ccccc2[nH]1
> 60,> 20,4.63,> 60,Cn1cc(-c2ccc3c(Oc4ccccc4)cc(=O)[nH]c3c2)cn1
60,> 20,2.17,60,O=c1cc(Oc2ccc(-c3cn[nH]c3)cc2)c2ccccc2[nH]1
> 60,1.85,6.95,> 60,Cc1n[nH]c(C)c1-c1ccc(Oc2cc(=O)[nH]c3ccccc23)cc1
> 60,> 20,> 10,> 60,Cn1cc(-c2ccc3[nH]c(=O)cc(Oc4ccccc4)c3c2)cn1
> 60,0.71,1.66,> 60,O=c1cc(Oc2ccc(-c3cccc(O)c3)cc2)c2ccccc2[nH]1
1.9,0.24,4.88,> 60,O=c1cc(Oc2ccc(-c3ccncc3)cc2)c2ccccc2[nH]1
> 60,0.69,> 10,> 60,Cc1ccc(Oc2cc(=O)[nH]c3ccccc23)cc1C
11,0.29,9.52,30,Nc1ccc(-c2cccc(Oc3cc(=O)[nH]c4ccccc34)c2)cc1
> 60,> 20,> 10,> 60,CCOc1ccc(Oc2cc(=O)[nH]c3ccccc23)cc1
5.5,1.04,> 10,> 60,O=c1cc(Oc2ccc(OC(F)F)cc2)c2ccccc2[nH]1
7,0.37,> 10,60,O=c1cc(Oc2cccc(-c3ccncc3)c2)c2ccccc2[nH]1
30,0.15,6.67,60,O=c1cc(Oc2cccc(-c3cc[nH]n3)c2)c2ccccc2[nH]1
8,0.17,5.59,30,Nc1cccc(-c2cccc(Oc3cc(=O)[nH]c4ccccc34)c2)c1
3.2,0.08,> 10,9.77,O=c1cc(Oc2cccc(NCc3cccnc3)c2)c2ccccc2[nH]1
7,0.32,> 10,28,CCN(CC)CCOc1cccc(Oc2cc(=O)[nH]c3ccccc23)c1
> 60,0.28,> 10,38,COc1ncc(-c2cccc(Oc3cc(=O)[nH]c4ccccc34)c2)c(OC)n1
4.5,0.6,6.73,> 60,Nc1cccc(Oc2cc(=O)[nH]c3cc(Cl)ccc23)c1
8,3.23,> 10,23,CN(C)CCc1ccc(Oc2cc(=O)[nH]c3ccccc23)cc1
> 60,0.74,> 10,18,O=c1cc(Oc2ccc(I)cc2)c2ccccc2[nH]1
15,0.22,3.67,11,CC(=O)Nc1ccc(-c2cccc(Oc3cc(=O)[nH]c4ccccc34)c2)cc1
6,0.34,12,> 60,O=c1cc(Oc2cccc(OCCO)c2)c2ccccc2[nH]1

# The remaining lines, values behind:
Structure (SMILES),IC50 [1] [µM],IC50 (human TOR (FLAG-TOR)) [µM],IC50 (PI3Kα) [µM],IC50 [2] [µM]
O=c1cc(Oc2cccc(NCc3cncc(F)c3)c2)c2ccccc2[nH]1,1.9,0.05,8.99,7.2
O=c1cc(Oc2ccccc2)c2ccc(-c3cn[nH]c3)cc2[nH]1,> 60,> 20,2.76,> 60
O=c1cc(Oc2ccccc2)c2cc(-c3cc[nH]n3)ccc2[nH]1,> 60,11.5,1.02,40
O=c1cc(Oc2ccccc2)c2cc(-c3cccnc3)ccc2[nH]1,> 60,8.5,7.44,> 60
CN1CCN(c2cc(-c3cccc(Oc4cc(=O)[nH]c5ccccc45)c3)ccn2)CC1,2.5,0.4,> 10,4.05
CN(C)CCCOc1ccc(-c2ccc(Oc3cc(=O)[nH]c4ccccc34)cc2)cn1,2.1,0.82,> 10,3.9
CN(C)CCCNC(=O)c1cccc(-c2cccc(Oc3cc(=O)[nH]c4ccccc34)c2)c1,4.3,0.5,> 10,10
O=C(NCCO)Nc1ccc(-c2cccc(Oc3cc(=O)[nH]c4ccccc34)c2)cc1,60,0.25,8.48,> 60
O=C(NCCN1CCOCC1)Nc1ccc(-c2cccc(Oc3cc(=O)[nH]c4ccccc34)c2)cc1,7,0.22,> 10,25
CN(C)CCNC(=O)Nc1ccc(-c2cccc(Oc3cc(=O)[nH]c4ccccc34)c2)cc1,7,0.1,> 10,9
COCCNC(=O)Nc1ccc(-c2cccc(Oc3cc(=O)[nH]c4ccccc34)c2)cc1,> 60,0.26,> 10,60
CC(C)OC(=O)Nc1ccc(-c2cccc(Oc3cc(=O)[nH]c4ccccc34)c2)cc1,4,1.35,> 10,5
CN(C)CCNC(=O)c1ccc(-c2cccc(Oc3cc(=O)[nH]c4ccccc34)c2)cc1,6,0.24,> 10,12
O=C(NCCO)c1ccc(-c2cccc(Oc3cc(=O)[nH]c4ccccc34)c2)cc1,> 60,0.23,> 10,> 60
CN(C)CCNC(=O)c1cccc(-c2cccc(Oc3cc(=O)[nH]c4ccccc34)c2)c1,10,0.32,> 10,10
CC(C)(C)OCNC(=O)c1cccc(-c2cccc(Oc3cc(=O)[nH]c4ccccc34)c2)c1,6.6,2.38,> 10,> 60
O=c1cc(Oc2cccc(-c3ccc(N4CCOCC4)cc3)c2)c2ccccc2[nH]1,13,0.49,10.4,35
O=c1cc(Oc2cccc(-c3ccc(N4CCOCC4)nc3)c2)c2ccccc2[nH]1,12,0.2,> 10,> 60
CC(C)(C)OC(=O)N1CCN(c2ccc(-c3cccc(Oc4cc(=O)[nH]c5ccccc45)c3)cc2)CC1,60,5.85,9.89,44
O=c1cc(Oc2cccc(-c3cccc(CN4CCOCC4)c3)c2)c2ccccc2[nH]1,9.5,0.6,6.83,30
